Test results reported in patent US20230089557A1, “METHODS OF TREATING DLBCL USING BTK INHIBITORS AND COMBINATIONS THEREOF” (BEIGENE SWITZERLAND GMBH, priority 2020, published 2023).

Columns and labels:
[1] = tested on: Non-GCB DLBCL PDX models; assay: Compound 1 efficacy (TGI) in non-GCB DLBCL PDX models by CD79B / CD79B ITAM mutation; type: in vivo, mice; conditions: p.o. 7.5 mg/kg BID
Source text: DLBCL patient-derived xenografted (PDX) models were established in immunodeficient NCG (NOD-Prkdcem26Cd52Il2rgem26Cd22/NjuCrl) mice. These models were classified into GCB and non-GCB subgroups based on immunohistochemistry (IHC) staining using Hans algorithm. Non-GCB DLBCL PDX models were classified into CD79B mutant versus CD79B wildtype groups; or CD79B ITAM domain mutant (amino acid 193-210) versus CD79B ITAM domain wildtype groups. For efficacy studies, tumor tissues were inoculated subcutaneously into NCG mice. When tumors reached 100˜200 mm^3, mice were randomized into each group with 7˜10 mice/group based on tumor volume. Compound 1 was formulated with 0.5% methyl cellulose as vehicle and treatment was started on the day of randomized grouping. Compound 1 was administrated p.o., 7.5 mg/(kg body weight), BID. Tumor volumes were measured twice weekly in two dimensions using a caliper, and the volume were expressed in mm^3 using the formula:
V=0.5(a×b^2) where a and b are the long and short diameters of the tumor, respectively.
Tumor growth inhibition (TGI) was calculated using the following formula:
% TGI=100×[1−(treatmentvt−treatmentv0)/(vehiclevt−Vehiclev0)]
Treatmentvt=tumor volume of treatment group at time t.
treatmentv0=tumor volume of treatment group at time of treatment started.
Vehiclevt=tumor volume of vehicle group at time t.
Vehiclev0=tumor volume of vehicle group at time of treatment started.
P value was calculated using two tails t test.

[2] = tested on: R/R non-GCB DLBCL; assay: Compound 1 monotherapy in patients with R/R non-GCB DLBCL; type: in vivo, human; conditions: for unadjusted ORR: non-GCB DLBCL
Description: A total of 121 patients with R/R non-GCB DLBCL were recruited in four Compound 1 treatment studies that were conducted at a similar time period. Two of the four studies were Compound 1 monotherapy (n=79) and two were Compound 1 combined with an anti-CD20 antibody therapy (n=42). Similar inclusion and exclusion criteria and response evaluation criteria were used across all studies. Fifty-six non-GCB patients were further subtyped by gene expression profiling (GEP) using the HTG EdgeSeq DLBCL Cell of Origin Assay. The expression of approximately 90 lymphoma-associated genes from the HTG GEP assay were analyzed by R package limma for correlation with response to Compound 1 treatment. Seventy-seven patient samples were tested by next-generation sequencing (NGS) with a panel of genes. Chi-square test was used to evaluate the correlation between mutations and the objective response rate (ORR).
Monotherapy schedule 1: Compound 1 was administered orally every day at 160 mg twice daily (BID) in 28-day cycles in patients with R/R non-GCB DLBCL.
Monotherapy schedule 2: Compound 1 was administered orally every day in each cycle at 160 mg BID in 28-day cycles in patients with R/R non-GCB DLBCL.
79 patients with non-GCB DLBCL were subjected to Compound 1 monotherapies (Monotherapy Schedule 1 or 2).

[3] = monotherapy 160 BID Schedule 1, ABC Subtype of DLBCL Patients
[4] = monotherapy 160 BID Schedule 1, CD79B ITAM_Mut
[5] = monotherapy 160 BID Schedule 1, CD79B ITAM_WT
[6] = monotherapy 160 BID Schedule 1, CD79B_Mut
[7] = monotherapy 160 BID Schedule 1, CD79B_WT
[8] = monotherapy 160 BID Schedule 1, MYD88_L265P
[9] = monotherapy 160 BID Schedule 1, MYD88_WT
[10] = monotherapy 160 BID Schedule 1, NOTCH1_Mut
[11] = monotherapy 160 BID Schedule 1, NOTCH1_WT
[12] = monotherapy 160 BID Schedule 1, Non-GCB DLBCL Patients
[13] = monotherapy 160 BID Schedule 1, Non-GCB DLBCL Patients with Sequence Available
[14] = monotherapy 160 BID Schedule 1, Patients with Sequence Available
[15] = monotherapy 160 BID Schedule 2, ABC Subtype of DLBCL Patients
[16] = monotherapy 160 BID Schedule 2, CD79B ITAM_Mut
[17] = monotherapy 160 BID Schedule 2, CD79B ITAM_WT
[18] = monotherapy 160 BID Schedule 2, CD79B_Mut
[19] = monotherapy 160 BID Schedule 2, CD79B_WT
[20] = monotherapy 160 BID Schedule 2, MYD88_L265P
[21] = monotherapy 160 BID Schedule 2, MYD88_L265P/CD79B_Mut
[22] = monotherapy 160 BID Schedule 2, MYD88_WT
[23] = monotherapy 160 BID Schedule 2, NOTCH1_Mut
[24] = monotherapy 160 BID Schedule 2, NOTCH1_WT
[25] = monotherapy 160 BID Schedule 2, Non-GCB DLBCL Patients
[26] = monotherapy 160 BID Schedule 2, Non-GCB DLBCL Patients with Sequence Available
[27] = monotherapy 160 BID Schedule 2, Other (not MYD88_L265P/CD79B_Mut)
[28] = monotherapy 160 BID Schedule 2, Patients with Sequence Available
[29] = monotherapy Total (N = 79), ABC Subtype of DLBCL Patients
[30] = monotherapy Total (N = 79), CD79B ITAM_Mut
[31] = monotherapy Total (N = 79), CD79B ITAM_WT
[32] = monotherapy Total (N = 79), CD79B_Mut
[33] = monotherapy Total (N = 79), CD79B_WT
[34] = monotherapy Total (N = 79), MYD88_L265P
[35] = monotherapy Total (N = 79), MYD88_L265P/CD79B_Mut
[36] = monotherapy Total (N = 79), MYD88_WT
[37] = monotherapy Total (N = 79), NOTCH1_Mut
[38] = monotherapy Total (N = 79), NOTCH1_WT
[39] = monotherapy Total (N = 79), Non-GCB DLBCL Patients
[40] = monotherapy Total (N = 79), Non-GCB DLBCL Patients with Sequence Available
[41] = monotherapy Total (N = 79), Other (not MYD88_L265P/CD79B_Mut)
[42] = monotherapy Total (N = 79), Patients with Sequence Available

With `C=CC(=O)N1CCC([C@@H]2CCNc3c(C(N)=O)c(-c4ccc(Oc5ccccc5)cc4)nn32)CC1` [Compound 1, (S)-7-(1-acryloylpiperidin-4-yl)-2-(4-phenoxyphenyl)-4,5,6,7-tetra-hydropyrazolo[1,5-a]pyrimidine-3-carboxamide] the “TGI (mean±SD)” value ([1]; CD79B ITAM domain mutation non-GCB DLBCL models) was 96.00±28.83%, the “TGI (mean±SD)” value ([1]; CD79B mutation non-GCB DLBCL models) was 87.5±33.14% and the “TGI (mean±SD)” value ([1]; CD79B wildtype non-GCB DLBCL models) was 49.44±42.36%. It also gave an ORR ([2]; GEP-confirmed activated B-cell DLBCL, first of the two monotherapies (Schedule 1)) of 53.8%, an ORR ([2]; GEP-confirmed activated B-cell DLBCL, second of the two monotherapies (Schedule 2)) of 36% and an ORR [2, 3] of 53.8. For the same compound, the Response/Patient [2, 3] was 7/13, the ORR [2, 4] was 100.0 and the Response/Patient [2, 4] was 2/2. The “Difference in ORR (95% CI)” value ([2]; monotherapy 160 BID Schedule 1, CD79B ITAM_Mut vs CD79B ITAM_WT) was 50.0, the ORR [2, 5] was 50.0 and the Response/Patient [2, 5] was 4/8. For the same compound, the ORR [2, 6] was 75.0, the Response/Patient [2, 6] was 3/4 and the “Difference in ORR (95% CI)” value ([2]; monotherapy 160 BID Schedule 1, CD79B_Mut vs CD79B_WT) was 25.0. The ORR [2, 7] was 50.0, the Response/Patient [2, 7] was 3/6 and the ORR [2, 8] was 0.0. For the same compound, the Response/Patient [2, 8] was 0/1, the “Difference in ORR (95% CI)” value ([2]; monotherapy 160 BID Schedule 1, MYD88_L265P vs MYD88_WT) was −66.7 and the ORR [2, 9] was 66.7. The Response/Patient [2, 9] was 6/9, the ORR [2, 10] was 100.0 and the Response/Patient [2, 10] was 1/1. For the same compound, the “Difference in ORR (95% CI)” value ([2]; monotherapy 160 BID Schedule 1, NOTCH1_Mut vs NOTCH1_WT) was 44.4, the ORR [2, 11] was 55.6 and the Response/Patient [2, 11] was 5/9. The ORR [2, 12] was 31.6, the Response/Patient [2, 12] was 12/38 and the ORR [2, 13] was 60.0. The Response/Patient [2, 13] was 6/10, the ORR ([2]; monotherapy 160 BID Schedule 1, Other (not MYD88_L265P/CD79B_Mut)) was 60.0 and the ORR [2, 14] was 63.6. The Response/Patient [2, 14] was 7/11, the ORR [2, 15] was 36.0 and the Response/Patients [2, 15] was 9/25. The ORR [2, 16] was 46.2, the Response/Patients [2, 16] was 6/13 and the “Difference in ORR (95% CI)” value ([2]; monotherapy 160 BID Schedule 2, CD79B ITAM_Mut vs CD79B ITAM_WT) was 17.6. For the same compound, the ORR [2, 17] was 28.6, the Response/Patients [2, 17] was 6/21 and the ORR [2, 18] was 46.2. The Response/Patients [2, 18] was 6/13, the “Difference in ORR (95% CI)” value ([2]; monotherapy 160 BID Schedule 2, CD79B_Mut vs CD79B_WT) was 17.6 and the ORR [2, 19] was 28.6. The Response/Patients [2, 19] was 6/21, the ORR [2, 20] was 40.0 and the Response/Patients [2, 20] was 4/10. The “Difference in ORR (95% CI)” value ([2]; monotherapy 160 BID Schedule 2, MYD88_L265P vs MYD88_WT) was 6.7, the ORR [2, 21] was 50.0 and the Response/Patients [2, 21] was 3/6. The “Difference in ORR (95% CI)” value ([2]; monotherapy 160 BID Schedule 2, MYD88_L265P/CD79B_Mut vs Other) was 17.9, the ORR [2, 22] was 33.3 and the Response/Patients [2, 22] was 8/24. The ORR [2, 23] was 100.0, the Response/Patients [2, 23] was 2/2 and the “Difference in ORR (95% CI)” value ([2]; monotherapy 160 BID Schedule 2, NOTCH1_Mut vs NOTCH1_WT) was 68.8. The ORR [2, 24] was 31.3, the Response/Patients [2, 24] was 10/32 and the ORR [2, 25] was 29.3. The Response/Patients [2, 25] was 12/41, the ORR [2, 26] was 35.3 and the Response/Patients [2, 26] was 12/34. The ORR [2, 27] was 32.1, the Response/Patients [2, 27] was 9/28 and the ORR [2, 28] was 35.3. The Response/Patients [2, 28] was 12/34, the ORR [2, 29] was 42.1 and the Response/Patients [2, 29] was 16/38. The ORR [2, 30] was 53.3, the Response/Patients [2, 30] was 8/15 and the “Difference in ORR (95% CI)” value ([2]; monotherapy Total (N = 79), CD79B ITAM_Mut vs CD79B ITAM_WT) was 18.9. The ORR [2, 31] was 34.5, the Response/Patients [2, 31] was 10/29 and the ORR [2, 32] was 52.9. For the same compound, the Response/Patients [2, 32] was 9/17, the “Difference in ORR (95% CI)” value ([2]; monotherapy Total (N = 79), CD79B_Mut vs CD79B_WT) was 19.6 and the ORR [2, 33] was 33.3. The Response/Patients [2, 33] was 9/27, the ORR [2, 34] was 36.4 and the Response/Patients [2, 34] was 4/11. The “Difference in ORR (95% CI)” value ([2]; monotherapy Total (N = 79), MYD88_L265P vs MYD88_WT) was −6.1, the ORR [2, 35] was 50.0 and the Response/Patients [2, 35] was 3/6. For the same compound, the “Difference in ORR (95% CI)” value ([2]; monotherapy Total (N = 79), MYD88_L265P/CD79B_Mut vs Other) was 10.5, the ORR [2, 36] was 42.4 and the Response/Patients [2, 36] was 14/33. The ORR [2, 37] was 100.0, the Response/Patients [2, 37] was 3/3 and the “Difference in ORR (95% CI)” value ([2]; monotherapy Total (N = 79), NOTCH1_Mut vs NOTCH1_WT) was 63.4. The ORR [2, 38] was 36.6, the Response/Patients [2, 38] was 15/41 and the ORR [2, 39] was 30.4. For the same compound, the Response/Patients [2, 39] was 24/79, the ORR [2, 40] was 40.9 and the Response/Patients [2, 40] was 18/44. The ORR [2, 41] was 39.5, the Response/Patients [2, 41] was 15/38 and the ORR [2, 42] was 42.2. For the same compound, the Response/Patients [2, 42] was 19/45, the “unadjusted ORR” value ([2]; first of the two monotherapies (Schedule 1)) was 31.6% and the “unadjusted ORR” value ([2]; second of the two monotherapies (Schedule 2)) was 29.3%. The ORR ([2]; two monotherapies, NOTCH1 mutant (n=3)) was 100%, the ORR ([2]; two monotherapies, non-GCB DLBCL with CD79B mutations (n=17)) was 52.9% and the ORR ([2]; two monotherapies, other population (without CD79B mutations)) was 33.3%. It also gave an ORR ([2]; two monotherapies, patients without NOTCH1 mutation) of 36.6%.
